Test results as given in ChEMBL document CHEMBL1201862, “PubChem BioAssay data set” (2004).
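Grown in 96-well plates, cells were treated for 48 hours with each compound at five concentrations. Insufficient inhibition: endpoint recorded as highest concentration tested. Here, GI50 denotes the concentration required for 50% inhibition of growth.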 Active and inactive are the calls of the source. No stated cut-off is given here; in the data, active = GI50 up to about 1.1 µM and inactive = higher.

Tests used:
Test in all cases: growth of human tumour cells (NCI), 48 h
[1] = tested on: A549
[2] = tested on: CAKI-1
[3] = tested on: COLO 205
[4] = tested on: HOP-62
[5] = tested on: HT-29
[6] = tested on: IGROV-1
[7] = tested on: MOLT-4
[8] = tested on: Malme-3M
[9] = tested on: NCI-H226
[10] = tested on: NCI-H23
[11] = tested on: OVCAR-5
[12] = tested on: RPMI-8226
[13] = tested on: SF-295
[14] = tested on: SK-OV-3
[15] = tested on: SNB-75
[16] = tested on: SW-620
[17] = tested on: 786-0
[18] = tested on: NCI-H522
[19] = tested on: SK-MEL-28
[20] = tested on: UO-31

Measured: GI50

CCCSc1nc(COC(=O)NC)c(COC(=O)NC)n1C
inactive: [1] > 100 µM | [2] 48.1 µM | [3] > 100 µM | [4] > 100 µM | [5] > 100 µM | [6] > 100 µM | [7] 27.7 µM | [8] > 100 µM | [9] > 100 µM | [10] > 78.5 µM | [11] > 100 µM | [12] 42 µM | [13] > 100 µM | [14] > 100 µM | [15] > 91.2 µM | [16] > 95.7 µM

O=C(CCc1ccc(O)c(O)c1)OCCc1ccccc1
inactive: [17] 19.7 µM | [1] > 100 µM | [2] 78.3 µM | [3] 42.7 µM | [4] > 31.6 µM | [5] > 100 µM | [6] 54.1 µM | [7] 15.1 µM | [8] > 88.9 µM | [9] > 100 µM | [10] > 65.3 µM | [18] 3.7 µM | [11] > 100 µM | [12] 18.9 µM | [13] > 100 µM | [19] > 100 µM | [14] > 100 µM | [16] 31.1 µM | [20] > 80.9 µM

Cc1cc(O)nc(NN2C(Cl)C(=O)C2c2cccc([N+](=O)[O-])c2)n1 (stereo not given)
inactive: [1] 76 µM | [3] 22.7 µM | [4] 31.4 µM | [5] 19.6 µM | [6] > 10 µM | [7] 14.3 µM | [9] 12.3 µM | [10] 20.7 µM | [11] > 100 µM | [12] 13.7 µM | [19] 17.1 µM | [15] 28 µM | [16] 35.1 µM | [20] 36.6 µM

O=C(CC(=O)Nc1ccc(C(=O)O)cc1)Nc1ccc(C(=O)O)cc1
inactive: [17] > 100 µM | [1] > 100 µM | [2] > 100 µM | [3] > 100 µM | [5] > 100 µM | [6] > 100 µM | [7] > 100 µM | [8] > 100 µM | [9] > 100 µM | [10] > 100 µM | [18] > 100 µM | [12] > 100 µM | [13] > 100 µM | [19] > 100 µM | [14] > 100 µM | [16] > 100 µM | [20] > 100 µM

CC(=O)OCCCCn1cnc2c(Cl)nc(Nc3ccccc3)nc21
inactive: [17] > 100 µM | [1] > 100 µM | [2] 18.7 µM | [3] > 100 µM | [4] > 100 µM | [5] > 100 µM | [6] > 100 µM | [7] > 100 µM | [8] > 100 µM | [9] > 100 µM | [10] 54.7 µM | [18] 16.5 µM | [11] > 100 µM | [12] > 100 µM | [13] > 100 µM | [19] > 100 µM | [16] > 100 µM | [20] > 100 µM

CC(C)(C)c1ccc(-n2c3nc(=O)n(-c4ccccc4CO)c(=O)c-3cc3ccccc32)cc1
inactive: [17] 87.1 µM | [1] 76.2 µM | [2] > 100 µM | [3] 46.5 µM | [5] 26.6 µM | [6] 71.9 µM | [7] 16.1 µM | [8] > 100 µM | [9] 28 µM | [10] 53.1 µM | [18] 32.7 µM | [11] > 100 µM | [13] 41.1 µM | [19] 38.7 µM | [15] 26.2 µM | [16] 39.2 µM | [20] 42.1 µM

Cc1c2c(n(CCN(C)C)c1C)NN=C(C#N)S2(=O)=O
inactive: [17] > 100 µM | [1] > 100 µM | [3] > 100 µM | [4] > 100 µM | [5] > 100 µM | [6] > 100 µM | [7] > 100 µM | [8] > 100 µM | [9] > 100 µM | [10] > 100 µM | [11] > 100 µM | [12] > 100 µM | [19] > 100 µM | [14] > 100 µM | [15] > 100 µM | [16] > 100 µM | [20] > 100 µM

O=S(=O)(N/N=C/c1c(Cl)cccc1Cl)c1ccccc1
inactive: [1] > 100 µM | [3] > 100 µM | [4] > 100 µM | [5] > 100 µM | [6] > 100 µM | [7] 91.4 µM | [8] > 100 µM | [9] > 100 µM | [10] > 100 µM | [11] > 100 µM | [12] > 100 µM | [13] > 100 µM | [19] > 100 µM | [14] > 100 µM | [15] 31.3 µM | [16] > 100 µM | [20] > 100 µM
